In patent publication US20230355597A1, “COMPOUNDS, COMPOSITIONS, AND METHODS FOR THE TREATMENT AND PREVENTION OF AVIAN PATHOGENIC E. COLI (APEC)” (OHIO STATE INNOVATION FOUNDATION, priority 2018, published 2023):
Values after ≈ are worked out from the molar mass of the structure shown. Marks after values point to notes of the source that are not given here.

Assays:
APEC O78 [1] = assay type: cell-based, avian pathogenic Escherichia coli (APEC); settings: APEC O78, M63 media
APEC O1 = assay type: cell-based, avian pathogenic Escherichia coli (APEC); settings: APEC O1, M63 media; MIC/MBC
APEC O2 = assay type: cell-based, avian pathogenic Escherichia coli (APEC); settings: APEC O2, M63 media; MIC/MBC
APEC O8 = assay type: cell-based, avian pathogenic Escherichia coli (APEC); settings: APEC O8, M63 media; MIC/MBC
APEC O15 = assay type: cell-based, avian pathogenic Escherichia coli (APEC); settings: APEC O15, M63 media; MIC/MBC
APEC O18 = assay type: cell-based, avian pathogenic Escherichia coli (APEC); settings: APEC O18, M63 media; MIC/MBC
APEC O35 = assay type: cell-based, avian pathogenic Escherichia coli (APEC); settings: APEC O35, M63 media; MIC/MBC
APEC O115 = assay type: cell-based, avian pathogenic Escherichia coli (APEC); settings: APEC O115, M63 media; MIC/MBC
APEC O109 = assay type: cell-based, avian pathogenic Escherichia coli (APEC); settings: APEC O109, M63 media; MIC/MBC
APEC O78-53 = assay type: cell-based, avian pathogenic Escherichia coli (APEC); settings: APEC O78-53, M63 media; MIC/MBC
APEC O1-63 = assay type: cell-based, avian pathogenic Escherichia coli (APEC); settings: APEC O1-63, M63 media; MIC/MBC
APEC O2-211 = assay type: cell-based, avian pathogenic Escherichia coli (APEC); settings: APEC O2-211, M63 media; MIC/MBC
[2] = test system: biofilm embedded APEC O78; experiment: MBEC High-throughput assay; assay type: cell-based, avian pathogenic Escherichia coli (APEC); settings: biofilm embedded APEC O78; superscript = multiple of MIC (footnote)
Procedure: Effect against biofilm embedded APEC. The effect of cidal SMs against biofilm embedded APEC was determined using MBEC High-throughput (HTP) assay (Innovotech Inc., AB, Canada). Briefly, 150 µL of 0.05 OD600 adjusted APEC O78 culture was aliquoted into each well of the MBEC device containing polystyrene pegs and incubated at 37° C. for 36 h in LB media under stationary condition. […] The plate was incubated in the dark for 18 h at 37° C. with rotation at 110 rpm. The DMSO (1%) and M63 media were used as positive and negative controls, respectively. Following incubation, MIC of SMs in challenged plate was recorded. The SMs exposed pegs were then transferred to a new 96-well plate containing PBS and sonicated for 30 mins (Aquasonic ultrasonic cleaner, VWR) to disrupt the biofilm. […] Biofilm embedded APEC bacteria were enumerated and minimum biofilm eradication concentration (MBEC) of […] were determined. Two independent experiments were conducted.

APEC O78 [3] = experiment: Confocal microscopy bacterial cytological profiling; assay type: cell-based, avian pathogenic Escherichia coli (APEC); settings: 2X MBC
Procedure: Confocal and scanning electron microscopy. Confocal microscopy was used for bacterial cytological profiling (BCP) to identify the cellular pathways targeted by SMs as described previously. […] After incubation, treated cultures were centrifuged, washed, and resuspended in 100 μL PBS. […] Cultures were then centrifuged, washed, and resuspended in PBS to 1⁄10th volume of the original cultures.

APEC O78 [4] = experiment: Loss of 260/280 nm absorbing materials assay; assay type: cell-based, avian pathogenic Escherichia coli (APEC); settings: 2X MBC, 1 h, *P<0.05 vs DMSO
[5] = test system: intracellular APEC O78 in Caco-2 cells; experiment: Intracellular survival assay (cidal SMs); settings: O78, Caco-2, 6 h treatment; superscript = multiple of MIC
[6] = test system: intracellular APEC O78 in HD11 cells; experiment: Intracellular survival assay (cidal SMs); settings: O78, HD11, 6 h treatment; superscript = multiple of MIC
[7] = test system: intracellular APEC O78 in THP-1 cells; experiment: Intracellular survival assay (cidal SMs); settings: O78, THP-1, 6 h treatment; superscript = multiple of MIC
[8] = test system: intracellular APEC O2 in Caco-2 cells; experiment: Intracellular survival assay (cidal SMs); settings: O2, Caco-2, 6 h treatment; superscript = multiple of MIC
[9] = test system: intracellular APEC O2 in HD11 cells; experiment: Intracellular survival assay (cidal SMs); settings: O2, HD11, 6 h treatment; superscript = multiple of MIC
[10] = test system: intracellular APEC O2 in THP-1 cells; experiment: Intracellular survival assay (cidal SMs); settings: O2, THP-1, 6 h treatment; superscript = multiple of MIC
[11] = test system: intracellular APEC O1 in Caco-2 cells; experiment: Intracellular survival assay (cidal SMs); settings: O1, Caco-2, 6 h treatment; superscript = multiple of MIC
[12] = test system: intracellular APEC O1 in HD11 cells; experiment: Intracellular survival assay (cidal SMs); settings: O1, HD11, 6 h treatment; superscript = multiple of MIC
[13] = test system: intracellular APEC O1 in THP-1 cells; experiment: Intracellular survival assay (cidal SMs); settings: O1, THP-1, 6 h treatment; superscript = multiple of MIC
Rif^r APEC O78 = experiment: In vivo efficacy of growth inhibitors in APEC infected broiler chickens
[14] = test system: intracellular APEC O78, O2, and O1 in infected Caco-2, HD11, and THP1 cells; experiment: Intracellular survival assay (cidal SMs), summary over serotypes and cells; settings: overall ranking

**Q.** How did the MIC (APEC O78 [1]; MIC/MBC) turn out when `COc1ccc(CNCc2cccc(C(F)(F)F)c2)cc1OCC(O)CN1CCCC1` (stereo not drawn) [SM7] was run?
**A.** The MIC was 25 µM (≈ 11 µg/mL).

**Q.** What about the MBC (APEC O78 [1]; cell prints MIC/MBC) of the same compound?
**A.** The MBC was 50 µM (≈ 21.9 µg/mL).

**Q.** And the MBC (APEC O1)?
**A.** The MBC was 100 µM (≈ 43.8 µg/mL).

**Q.** And the MIC (APEC O1)?
**A.** The MIC was 50 µM (≈ 21.9 µg/mL).

**Q.** What about the MBC (APEC O2) of the same compound?
**A.** Its MBC is 50 µM (≈ 21.9 µg/mL).

**Q.** And the MIC (APEC O2)?
**A.** The MIC was 25 µM (≈ 11 µg/mL).

**Q.** What about the MBC (APEC O8) of the same compound?
**A.** The MBC was 200 µM (≈ 87.7 µg/mL).

**Q.** And the MIC (APEC O8)?
**A.** Its MIC is 100 µM (≈ 43.8 µg/mL).

**Q.** And the MBC (APEC O15)?
**A.** Its MBC is 50 µM (≈ 21.9 µg/mL).

**Q.** What about the MIC (APEC O15) of the same compound?
**A.** The MIC was 50 µM (≈ 21.9 µg/mL).

**Q.** What about the MBC (APEC O18) of the same compound?
**A.** Its MBC is 100 µM (≈ 43.8 µg/mL).

**Q.** And the MIC (APEC O18)?
**A.** The MIC was 50 µM (≈ 21.9 µg/mL).

**Q.** And the MBC (APEC O35)?
**A.** Its MBC is 50 µM (≈ 21.9 µg/mL).

**Q.** And the MIC (APEC O35)?
**A.** Its MIC is 25 µM (≈ 11 µg/mL).

**Q.** What about the MBC (APEC O115) of the same compound?
**A.** The MBC was 100 µM (≈ 43.8 µg/mL).

**Q.** And the MIC (APEC O115)?
**A.** Its MIC is 100 µM (≈ 43.8 µg/mL).

**Q.** What about the MBC (APEC O109) of the same compound?
**A.** Its MBC is 100 µM (≈ 43.8 µg/mL).

**Q.** And the MIC (APEC O109)?
**A.** The MIC was 100 µM (≈ 43.8 µg/mL).

**Q.** And the MBC (APEC O78-53)?
**A.** Its MBC is 50 µM (≈ 21.9 µg/mL).

**Q.** What about the MIC (APEC O78-53) of the same compound?
**A.** The MIC was 50 µM (≈ 21.9 µg/mL).

**Q.** What about the MBC (APEC O1-63) of the same compound?
**A.** The MBC was 100 µM (≈ 43.8 µg/mL).

**Q.** And the MIC (APEC O1-63)?
**A.** Its MIC is 50 µM (≈ 21.9 µg/mL).

**Q.** What about the MBC (APEC O2-211) of the same compound?
**A.** Its MBC is 50 µM (≈ 21.9 µg/mL).

**Q.** And the MIC (APEC O2-211)?
**A.** Its MIC is 50 µM (≈ 21.9 µg/mL).

**Q.** And the MBEC [2]?
**A.** The MBEC was 50^b µM.

**Q.** What about the “cytological profile (confocal, FM4-64 / SYTO-9)” value (APEC O78 [3]) of the same compound?
**A.** Its value is “membrane pore formers”.

**Q.** And the “Absorbance 260” value (APEC O78 [4]; 260 nm absorbing material in supernatant)?
**A.** The value was 3.91*.

**Q.** What about the “Absorbance 280” value (APEC O78 [4]; 280 nm absorbing material in supernatant) of the same compound?
**A.** Its value is 2.70*.

**Q.** And the “SMs intracellular APEC clearance concentration” value [5]?
**A.** Its value is 100^c µM.

**Q.** What about the “SMs intracellular APEC clearance concentration” value [6] of the same compound?
**A.** The value was 50^b µM.

**Q.** And the “SMs intracellular APEC clearance concentration” value [7]?
**A.** The value was 50^b µM.

**Q.** And the “SMs intracellular APEC clearance concentration” value [8]?
**A.** The value was 100^c µM.

**Q.** What about the “SMs intracellular APEC clearance concentration” value [9] of the same compound?
**A.** The value was 100^c µM.

**Q.** What about the “SMs intracellular APEC clearance concentration” value [10] of the same compound?
**A.** Its value is 25^a µM.

**Q.** What about the “SMs intracellular APEC clearance concentration” value [11] of the same compound?
**A.** The value was 100^c µM.

**Q.** And the “SMs intracellular APEC clearance concentration” value [12]?
**A.** Its value is 100^c µM.

**Q.** What about the “SMs intracellular APEC clearance concentration” value [13] of the same compound?
**A.** Its value is over 100 µM.

**Q.** What about the “reduction of average APEC load in internal organs” value (Rif^r APEC O78; average of liver, heart, lung and kidney, vs untreated control) of the same compound?
**A.** Its value is 2.6 logs.

**Q.** What about the cumulative lesions score (Rif^r APEC O78; liver, heart, lung and air-sacs, untreated 6.2) of the same compound?
**A.** Its cumulative lesions score is 2.4.

**Q.** And the “reduction of APEC induced mortality” value (Rif^r APEC O78; oral gavage twice a day, 5 days, untreated mortality (58.34%) normalized to 100%)?
**A.** Its value is 71.42%.

**Q.** And the “reduction of APEC lesions severity (%), Air-sacs (airsacculitis)” value (Rif^r APEC O78; untreated control = 100%)?
**A.** The value was 52.9%.

**Q.** What about the “reduction of APEC lesions severity (%), Heart (pericarditis)” value (Rif^r APEC O78; untreated control = 100%) of the same compound?
**A.** The value was 60%.

**Q.** What about the “reduction of APEC lesions severity (%), Liver (perihepatitis)” value (Rif^r APEC O78; untreated control = 100%) of the same compound?
**A.** The value was 60%.

**Q.** And the “reduction of APEC lesions severity (%), Lung (lung congestion)” value (Rif^r APEC O78; untreated control = 100%)?
**A.** Its value is 83.3%.

**Q.** And the “effect on BWG of chickens” value (Rif^r APEC O78; vs non-treated and non-infected chickens)?
**A.** Its value is “indistinguishable BWG”.

**Q.** And the “reduction of APEC load, Heart” value (Rif^r APEC O78; vs untreated control)?
**A.** Its value is 2.3 log CFU/g of tissues.

**Q.** What about the “reduction of APEC load, Kidney” value (Rif^r APEC O78; vs untreated control) of the same compound?
**A.** Its value is 3.2 log CFU/g of tissues.

**Q.** What about the “reduction of APEC load, Liver” value (Rif^r APEC O78; vs untreated control) of the same compound?
**A.** Its value is 2.5 log CFU/g of tissues.

**Q.** What about the “reduction of APEC load, Lung” value (Rif^r APEC O78; vs untreated control) of the same compound?
**A.** The value was 2.4 log CFU/g of tissues.

**Q.** What about the “Body weight gain (BWG)” value (Rif^r APEC O78; weight of live chickens before necropsy minus weight before treatment) of the same compound?
**A.** The value was 261.30±20.43.

**Q.** And the “effectiveness in clearing intracellular APEC serotypes in all tested cells” value [14]?
**A.** Its value is “most effective”.
